Assay results reported in patent US20030163846A1, “Process for the genetic modification of a plant” (priority 2000, published 2003).

Legend:
[1] = system: SUT4; assay: stimulation/inhibition of uptake of 14C-saccharose by means of SUT4 (FIG. 5C); type: cell-based
Method: (§1) For the saccharose uptake tests, yeast was cultivated in a liquid minimal medium containing glucose, up to an OD623 of approximately 0.8. Cells were collected by means of centrifugation, washed in 25 mM sodium phosphate buffer (pH 5.5), and suspended in the same buffer at an OD623 of 20. The uptake tests were initiated by adding glucose ending at a final concentration of 10 mM to the yeast cells one minute before adding ^14C-saccharose. Following incubation at 30° C. while stirring, cells were collected by means of vacuum filtration on fiberglass filters (1-5 minutes), washed twice with 4 mL 10 mM saccharose (at the freezing point), and the radioactivity was determined using a liquid scintillation counter. […] A significant difference compared with the vector controls is apparent.
The stimulation of the uptake of ^14C-saccharose by means of SUT4 through glucose and the inhibition through an electron transport inhibitor (antimycin A and the protonophore CCCP is shown in FIG. 5C).

[2] = target: T1, AtSUT2 (Arabidopsis thaliana, UniProt O80605); assay: substrate specificity and inhibition of saccharose uptake by AtSUT2 in yeast; type: cell-based; conditions: for competition with 14C-saccharose uptake: 1 mM saccharose, competitively with other sugars and sugar alcohols
T1 construct: expressed in transfected cells; host or cells: Saccharomyces cerevisiae SEY6210, expression vector pDR196
T1 sequence (O80605 1-594): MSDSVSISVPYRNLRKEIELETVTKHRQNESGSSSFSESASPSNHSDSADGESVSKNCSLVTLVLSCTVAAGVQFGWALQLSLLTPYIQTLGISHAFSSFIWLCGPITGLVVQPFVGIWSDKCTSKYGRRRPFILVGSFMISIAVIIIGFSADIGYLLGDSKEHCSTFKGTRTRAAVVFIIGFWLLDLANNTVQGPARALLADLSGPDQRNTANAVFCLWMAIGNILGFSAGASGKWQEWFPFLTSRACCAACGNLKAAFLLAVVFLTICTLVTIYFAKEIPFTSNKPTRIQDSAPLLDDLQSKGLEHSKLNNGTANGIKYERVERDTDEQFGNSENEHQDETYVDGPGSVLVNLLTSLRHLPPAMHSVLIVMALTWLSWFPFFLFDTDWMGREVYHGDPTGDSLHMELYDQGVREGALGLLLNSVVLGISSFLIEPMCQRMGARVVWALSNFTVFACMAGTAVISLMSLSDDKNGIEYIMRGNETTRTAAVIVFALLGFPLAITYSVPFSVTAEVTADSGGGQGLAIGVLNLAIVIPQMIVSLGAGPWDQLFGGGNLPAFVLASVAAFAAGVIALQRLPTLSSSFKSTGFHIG
Method: The saccharose uptake by AtSUT2 was pH-dependent, and the highest uptake rates were measured at a pH of 4.0. […] To determine the substrate specificity of AtSUT2, the saccharose uptake (1 mM saccharose) was measured competitively with other sugars and sugar alcohols.

[3] = system: leaf blades; conditions: high affinity/low capacity system, cited from earlier work
[4] = 14-C saccharose uptake tests in yeast strain SEY6210 expressing AtSUT2, StSUT1 or chimeric proteins; type: cell-based; conditions: for Km: AtSUT2 at a pH of 4
Method: It was shown that the saccharose uptake by yeast cells that express AtSUT2 was linear in the first five minutes of the test. During this period, 0.1 nmol saccharose accumulated in 10^8 cells. […] By contrast, the transport rate with StSUT1-expressing cells was 400 times greater than with AtSUT2-expressing cells. […] Using the Michaelis-Menten equation and a nonlinear regression analysis, a KM value of 11.7±1.2 mM
Table: KM values for saccharose of the saccharose transporters StSUT1 and AtSUT2 as well as of chimeric proteins in which the N-terminal regions or central cytoplasmic loops are exchanged between the two transporters. The values were determined as mean values±standard errors from at least three different measurements. Different letters indicate significant differences (p<0.05).

[5] = 14C-saccharose uptake tests in yeast expressing SUT4 (SUSY7/ura3); type: cell-based
Method: The yeast strain SUSY7/ura3 is a modified version of SUSY7 (Riesmeier et al., EMBO J. (1992) 11, 4705-4713), which contains a deletion of a portion of the URA3 gene and, as a result, permits selection for uracil auxotrophy. Media that contained the 1.7 g/L yeast nitrogen base without amino acids (Difco), 2% saccharose, 20 mg/L tryptophane, and 1.5% agarose, pH 5.0, were used to analyze yeast growth on a saccharose medium.
as §1
Data for the kinetic analysis were obtained for SUT4 from a nonlinear regression of the uptake measurements using the Michaelis-Menten equation. Km was represented as an average of eight determinations using three independent transformants±standard deviation. The KM value for saccharose that was determined was 11.6±0.6 mM (at a pH of 5.5) and 5.9±0.8 mM (at a pH of 4.0) for SUT4 from arabidopsis. For SUT4 from Solanum tuberosum the KM value was 6.0±1.2 mM (pH 4.0) (see FIG. 5B).

With N#CC(C#N)=NNc1cccc(Cl)c1 [CCCP] the “effect on uptake of 14C-saccharose by means of SUT4” value [1] was “inhibition” and the “inhibition of saccharose transport by means of AtSUT2” value [2] was “inhibited”.

With OC[C@H](O)[C@@H](O)[C@H](O)[C@H](O)CO[C@H]1O[C@H](CO)[C@@H](O)[C@H](O)[C@H]1O [glucosorbitol] the “competition with 14C-saccharose uptake” value [2] was “only the saccharose and to a lesser extent maltose were able to compete significantly”.

With OC[C@@H](O)[C@@H](O)[C@H](O)[C@@H](O)CO [sorbitol] the “competition with 14C-saccharose uptake” value [2] was “only the saccharose and to a lesser extent maltose were able to compete significantly”.

In the case of OC[C@@H](O)[C@@H](O)[C@H](O)[C@H](O)CO[C@H]1O[C@H](CO)[C@@H](O)[C@H](O)[C@H]1O [glucomannitol], the “competition with 14C-saccharose uptake” value [2] is reported as “only the saccharose and to a lesser extent maltose were able to compete significantly”.

With O=C[C@H](O)[C@@H](O)[C@@H](O)[C@H](O)CO [galactose] the “competition with 14C-saccharose uptake” value [2] was “only the saccharose and to a lesser extent maltose were able to compete significantly”.

With OC[C@H]1O[C@H](OC[C@H]2OC(O)(CO)[C@@H](O)[C@@H]2O)[C@H](O)[C@@H](O)[C@@H]1O (some centres unmarked) [isomaltulose] the “competition with 14C-saccharose uptake” value [2] was “only the saccharose and to a lesser extent maltose were able to compete significantly”.

With OC[C@H]1O[C@@H](O[C@H]2[C@H](O)[C@@H](O)C(O)O[C@@H]2CO)[C@H](O)[C@@H](O)[C@H]1O (some centres unmarked) [lactose] the “competition with 14C-saccharose uptake” value [2] was “only the saccharose and to a lesser extent maltose were able to compete significantly”.

For OC[C@H]1O[C@@](CO)(O[C@H]2O[C@H](CO)[C@@H](O)[C@H](O)[C@H]2O)[C@@H](O)[C@@H]1O [saccharose], the “competition with 14C-saccharose uptake” value [2] is listed as “able to compete significantly”, the Km ([3]; read-out: Km of saccharose intake) is listed as 2.7 mM and the “Vmax of saccharose intake” value [3] is listed as 0.7 nmol cm^−2 min^−1.

For antimycin A, the “effect on uptake of 14C-saccharose by means of SUT4” value [1] was “inhibition” and the “inhibition of saccharose transport by means of AtSUT2” value [2] was “inhibited”.

With OC[C@H]1O[C@H](OC[C@H]2O[C@H](O[C@]3(CO)O[C@H](CO)[C@@H](O)[C@@H]3O)[C@H](O)[C@@H](O)[C@@H]2O)[C@H](O)[C@@H](O)[C@H]1O [raffinose] the “competition with 14C-saccharose uptake” value [2] was “only the saccharose and to a lesser extent maltose were able to compete significantly”.

In the case of OC[C@@H](O)[C@@H](O)[C@H](O)[C@H](O)CO [mannitol], the “competition with 14C-saccharose uptake” value [2] is reported as “only the saccharose and to a lesser extent maltose were able to compete significantly”.

B1: AtSUT2: SUT2 from Arabidopsis thaliana, SEQ ID no. 7; low-affinity saccharose transporter, sensor and/or regulator (protein, listed as Arabidopsis thaliana)
chain: MSDSVSISVPYRNLRKEIELETVTKHRQNESGSSSFSESASPSNHSDSADGESVSKNCSLVTLVLSCTVAAGVQFGWALQLSLLTPYIQTLGISHAFSSFIWLCGPITGLVVQPFVGIWSDKCTSKYGRRRPFILVGSFMISIAVIIIGFSADIGYLLGDSKEHCSTFKGTRTRAAVVFIIGFWLLDLANNTVQGPARALLADLSGPDQRNTANAVFCLWMAIGNILGFSAGASGKWQEWFPFLTSRACCAACGNLKAAFLLAVVFLTICTLVTIYFAKEIPFTSNKPTRIQDSAPLLDDLQSKGLEHSKLNNGTANGIKYERVERDTDEQFGNSENEHQDETYVDGPGSVLVNLLTSLRHLPPAMHSVLIVMALTWLSWFPFFLFDTDWMGREVYHGDPTGDSLHMELYDQGVREGALGLLLNSVVLGISSFLIEPMCQRMGARVVWALSNFTVFACMAGTAVISLMSLSDDKNGIEYIMRGNETTRTAAVIVFALLGFPLAITYSVPFSVTAEVTADSGGGQGLAIGVLNLAIVIPQMIVSLGAGPWDQLFGGGNLPAFVLASVAAFAAGVIALQRLPTLSSSFKSTGFHIG
With B1 the “pH of highest uptake rates” value [4] was 4.0, the “saccharose accumulated in 10^8 cells” value ([4]; first five minutes of the test, in 10^8 cells) was 0.1 nmol and the “uptake of saccharose compared with yeast cells expressing empty vector pDR196” value ([4]; p<0.05) was “significantly higher”. The “saccharose uptake at a pH of 6” value ([4]; pH of 6) was “no further saccharose uptake was measured”, the Vmax ([4]; table) was 1.5 ± 0.1 nmol saccharose min^−1 10^8 ce and the Vmax ([4]; yeast SEY6210) was 1.5 nmol·min^−1 10^8 cells^−1. The Km ([4]; yeast SEY6210) was 11.7 mM.

B2: StSUT1: high-affinity saccharose transporter SUT1 from Solanum tuberosum, SEQ ID no. 23 (protein, listed as Solanum tuberosum)
chain: MENGTKREGLGKLTVSSSLQVEQPLAPSKLWKIIVVASIAAGVQFGWALQLSLLTPYVQLLGIPHKFASFIWLCGPISGMIVQPVVGYYSDNCSSRFGRRRPFIAAGAALVMIAVFLIGFAADLGHASGDTLGKGFKPRAIAVFVVGFWILDVANNMLQGPCRALLADLSGGKSGRMRTANAFFSFFMAVGNILGYAAGSYSHLFKVFPFSKTKACDMYCANLKSCFFIAIFLLLSLTTIALTLVRENELPEKDEQEIDEKLAGAGKSKVPFFGEIFGALKELPRPMWILLLVTCLNWIAWFPFFLYDTDWMAKEVFGGQVGDARLYDLGVRAGAMGLLLQSVVLGFMSLGVEFLGKKIGGAKRLWGILNFVLAICLAMTILVTKMAEKSRQHDPAGTLMGPTPGVKIGALLLFAALGIPLAATFSIPFALASIFSSNRGSGQGLSLGVLNLAIVVPQMLVSLVGGPWDDLFGGGNLPGFVVGAVAAAASAVLALTMLPSPPADAKPAVAMGGFH
In the case of B2, the “KM value for saccharose, fold lower than AtSUT2” value [4] is reported as 10 times, the “transport rate relative to AtSUT2-expressing cells” value [4] is reported as 400 times and the Vmax ([4]; table) is reported as 210.2 ± 5.7 nmol saccharose min^−1 10^8 ce. For the same molecule, the Vmax ([4]; yeast SEY6210) was 210.2 nmol·min^−1 10^8 cells^−1 and the Km ([4]; yeast SEY6210) was 1.7 mM.

B3: StSUT4: saccharose transporter SUT4 from Solanum tuberosum, amino acid sequence SEQ ID no. 28 (protein, listed as Solanum tuberosum)
chain: MPEIERHRTRHNRPAIREPVKPRVPLRLLFRVASVAGGIQFGWALQLSLLTPYVQELGIPHAWASIIWLCGPLSGLLVQPLVGHMSDKCTSRFGRRRPFIVAGAVSIMIAVLIIGFSADIGWLLGDRGEIKVRAIAAFVVGFWLLDVANNMTQGPCRALLADLTQKDHRRTRVANAYFSLFMAIGNILGFATGSYSGWFKIFPFTLNTACTINCANLKAAFIIDIIFIATTTCISISAANEQPLDPSRGSSHTREEIGESSHGQEEAFLWELFGIFKYFPGVVWVILLVTALTWIGWFPFLLFDTDWFGREIYGGEPNDGKNYSAGVRMGSLGLMLNSVLLGLTSLFMEKLCRKWGAGFTWGVSNVVMSLCFIAMLIITAVRSNIDIGQGLPPDGIVIAALVVFSILGIPLAITYSVPYALVSSRIDALGLGQGLSMGVLNLAIVFPQIVVSLGSGPWDELFGGGNSPAFVVAALSAFAGGLIAILAIPRTRVEKPKIFA
With B3 the “functional saccharose transporter (uptake of 14C-saccharose vs vector controls)” value ([5]; FIG. 5A) was “functional saccharose transporters” and the Km ([5]; pH 4.0, Michaelis-Menten nonlinear regression, average ± standard deviation) was 6 ± 1.2 mM.
